Source: patent US20240368694A1 (priority 2021, published 2024)

Experiments:
[1] = tested on: miRNA expression profiles in liver and jejunum; design: species or system Sus scrofa; settings: in vivo
miRNAs in serum = tested on: miRNAs in serum; design: species or system Sus scrofa; settings: in vivo
[2] = tested on: ssc-miR-16, ssc-miR-128, ssc-miR-205 and ssc-miR-451 in serum; design: species or system Sus scrofa; settings: in vivo
[3] = pigs, cited from earlier work
[4] = tested on: serum interleukins IL1β, IL-8, IL-13, tumor necrosis factor or interferon-gamma; settings: pigs, 3.3-3.8 ppm DON in feed (Pasternak et al. 2018); cited from earlier work
[5] = tested on: insulin like growth factor 1 (IGF1); settings: serum levels of growth hormones (Wang et al. 2019; Wu et al. 2013, 2015); cited from earlier work

SMILES: CC1=C[C@H]2O[C@@H]3[C@H](O)C[C@](C)([C@@]2(CO)[C@H](O)C1=O)[C@]31CO1 [DON, (3α,7α)-3,7,15-trihydroxy-12,13-epoxytrichothec-9-en-8-one]
- differentially expressed miRNAs in liver, Control vs DON high [1]: one differentially expressed miRNA, namely ssc-miR-10b
- differentially expressed miRNAs in tissues, Control vs DON low [1]: no differentially expressed miRNAs
- effect on the miRNA expression profiles in liver and jejunum [1]: did not exhibit a strong effect
- number of serum miRNAs significantly altered in both DON low and DON high (miRNAs in serum): eight
- number of serum miRNAs significantly altered, DON high vs Control (miRNAs in serum): 16
- number of serum miRNAs significantly altered, DON low vs Control (miRNAs in serum): 15
- ssc-let-7a Log2 fold vs Control, DON high (miRNAs in serum): −0.502
- ssc-let-7a Log2 fold vs Control, DON low (miRNAs in serum): n.s.
- ssc-let-7f-5p Log2 fold vs Control, DON high (miRNAs in serum): −0.503
- ssc-let-7f-5p Log2 fold vs Control, DON low (miRNAs in serum): n.s.
- ssc-let-7g Log2 fold vs Control, DON high (miRNAs in serum): 0.662
- ssc-let-7g Log2 fold vs Control, DON low (miRNAs in serum): n.s.
- ssc-miR-10a-5p Log2 fold vs Control, DON high (miRNAs in serum): n.s.
- ssc-miR-10a-5p Log2 fold vs Control, DON low (miRNAs in serum): −0.806
- ssc-miR-10b Log2 fold vs Control, DON high (miRNAs in serum): −0.754
- ssc-miR-10b Log2 fold vs Control, DON low (miRNAs in serum): −1.129
- ssc-miR-10b direction of change in serum upon DON treatment (miRNAs in serum): down-regulated
- ssc-miR-16 Log2 fold vs Control, DON high (miRNAs in serum): 0.773
- ssc-miR-16 Log2 fold vs Control, DON low (miRNAs in serum): 1.217
- ssc-miR-16 direction of change in serum of DON exposed pigs (miRNAs in serum): up-regulated
- ssc-miR-17-5p Log2 fold vs Control, DON high (miRNAs in serum): 1.194
- ssc-miR-17-5p Log2 fold vs Control, DON low (miRNAs in serum): n.s.
- ssc-miR-92a Log2 fold vs Control, DON high (miRNAs in serum): 0.476
- ssc-miR-92a Log2 fold vs Control, DON low (miRNAs in serum): n.s.
- ssc-miR-92b-3p Log2 fold vs Control, DON high (miRNAs in serum): n.s.
- ssc-miR-92b-3p Log2 fold vs Control, DON low (miRNAs in serum): −1.058
- ssc-miR-99b Log2 fold vs Control, DON high (miRNAs in serum): −1.226
- ssc-miR-99b Log2 fold vs Control, DON low (miRNAs in serum): −1.393
- ssc-miR-99b direction of change in serum upon DON treatment (miRNAs in serum): down-regulated
- ssc-miR-103 Log2 fold vs Control, DON high (miRNAs in serum): −0.630
- ssc-miR-103 Log2 fold vs Control, DON low (miRNAs in serum): n.s.
- ssc-miR-107 Log2 fold vs Control, DON high (miRNAs in serum): −0.619
- ssc-miR-107 Log2 fold vs Control, DON low (miRNAs in serum): n.s.
- ssc-miR-126-5p Log2 fold vs Control, DON high (miRNAs in serum): n.s.
- ssc-miR-126-5p Log2 fold vs Control, DON low (miRNAs in serum): −1.298
- ssc-miR-128 Log2 fold vs Control, DON high (miRNAs in serum): 0.887
- ssc-miR-128 Log2 fold vs Control, DON low (miRNAs in serum): 1.124
- ssc-miR-128 direction of change in serum of DON exposed pigs (miRNAs in serum): up-regulated
- ssc-miR-148a-3p Log2 fold vs Control, DON high (miRNAs in serum): 0.521
- ssc-miR-148a-3p Log2 fold vs Control, DON low (miRNAs in serum): n.s.
- ssc-miR-192 Log2 fold vs Control, DON high (miRNAs in serum): −0.928
- ssc-miR-192 Log2 fold vs Control, DON low (miRNAs in serum): −1.133
- ssc-miR-192 direction of change in serum upon DON treatment (miRNAs in serum): down-regulated
- ssc-miR-205 Log2 fold vs Control, DON high (miRNAs in serum): 5.102
- ssc-miR-205 Log2 fold vs Control, DON low (miRNAs in serum): 5.774
- ssc-miR-205 direction of change in serum of DON exposed pigs (miRNAs in serum): up-regulated
- ssc-miR-339-5p Log2 fold vs Control, DON high (miRNAs in serum): n.s.
- ssc-miR-339-5p Log2 fold vs Control, DON low (miRNAs in serum): 1.346
- ssc-miR-339 Log2 fold vs Control, DON high (miRNAs in serum): n.s.
- ssc-miR-339 Log2 fold vs Control, DON low (miRNAs in serum): 1.345
- ssc-miR-361-3p Log2 fold vs Control, DON high (miRNAs in serum): n.s.
- ssc-miR-361-3p Log2 fold vs Control, DON low (miRNAs in serum): 2.023
- ssc-miR-374a-3p Log2 fold vs Control, DON high (miRNAs in serum): −1.443
- ssc-miR-374a-3p Log2 fold vs Control, DON low (miRNAs in serum): −1.271
- ssc-miR-374a-3p direction of change in serum upon DON treatment (miRNAs in serum): down-regulated
- ssc-miR-451 Log2 fold vs Control, DON high (miRNAs in serum): 0.808
- ssc-miR-451 Log2 fold vs Control, DON low (miRNAs in serum): 1.375
- ssc-miR-451 direction of change in serum of DON exposed pigs (miRNAs in serum): up-regulated
- ssc-miR-1388 Log2 fold vs Control, DON high (miRNAs in serum): n.s.
- ssc-miR-1388 Log2 fold vs Control, DON low (miRNAs in serum): −1.281
- ssc-miR-16 normalized Cq-value log 2 fold change in the DON groups compared to the Control [2]: increased
- ssc-miR-16 qPCR log2 fold change, DON_high vs Control [2]: 2.227
- ssc-miR-16 qPCR log2 fold change, DON_low vs Control [2]: 3.504
- ssc-miR-128 normalized Cq-value log 2 fold change in the DON groups compared to the Control [2]: increased
- ssc-miR-128 qPCR log2 fold change, DON_high vs Control [2]: 1.879
- ssc-miR-128 qPCR log2 fold change, DON_low vs Control [2]: 3.885
- ssc-miR-205 normalized Cq-value log 2 fold change in the DON groups compared to the Control [2]: increased
- ssc-miR-205 qPCR log2 fold change, DON_high vs Control [2]: 2.455
- ssc-miR-205 qPCR log2 fold change, DON_low vs Control [2]: 4.973
- ssc-miR-451 normalized Cq-value log 2 fold change in the DON groups compared to the Control [2]: increased
- ssc-miR-451 qPCR log2 fold change, DON_high vs Control [2]: 1.835
- ssc-miR-451 qPCR log2 fold change, DON_low vs Control [2]: 2.663
- doses of DON in feed starting from which feed consumption and weight gain decrease ([3]; EFSA summary of multiple feeding trials): 0.6-2.0 ppm
- effect on body weight at 3 ppm DON ([3]; exposure to 3 ppm DON (Grenier et al. 2011, 2013)): does not necessarily result in significant effects on body weight
- effect on serum interleukins IL1β, IL-8, IL-13, tumor necrosis factor or interferon-gamma [4]: had no effect
- dietary DON concentrations at which a decrease of serum IGF1 was reported [5]: ≥ 3 ppm
